{"source": "patent US7375088B2", "about": "“Polyene polyketides, processes for their production and their use as a pharmaceutical” (Thallion Pharmaceuticals Inc., priority 2003, dated 2008)", "key": {"Aspergillus fumigatus": {"tested_on": "Aspergillus fumigatus", "experiment": "Disk diffusion assay (MEC and zone of inhibition)", "type": "cell-based", "conditions": "for ZOI (zone of inhibition of fungal growth calculated for each MEC): at the MEC; for ZOI (zone of inhibition of fungal growth calculated for each MEC) / MEC (minimum effective concentration): 24 hours of incubation; for MEC (minimum effective concentration): disk diffusion"}, "Aspergillus flavus": {"tested_on": "Aspergillus flavus", "experiment": "Disk diffusion assay (MEC and zone of inhibition)", "type": "cell-based", "conditions": "for ZOI (zone of inhibition of fungal growth calculated for each MEC): at the MEC; for ZOI (zone of inhibition of fungal growth calculated for each MEC) / MEC (minimum effective concentration): 24 hours of incubation; for MEC (minimum effective concentration): disk diffusion"}}, "data": [{"molecule": "CCC(C)n1ncn(-c2ccc(N3CCN(c4ccc(OCC5COC(Cn6cncn6)(c6ccc(Cl)cc6Cl)O5)cc4)CC3)cc2)c1=O", "note": "(centres unmarked) [Itraconazole]", "values": [{"measurement": "ZOI (zone of inhibition of fungal growth calculated for each MEC)", "setting": "Aspergillus fumigatus", "result": 1.7, "unit": "mm"}, {"measurement": "MEC (minimum effective concentration)", "setting": "Aspergillus fumigatus", "result": 1.0, "unit": "µg/mL"}, {"measurement": "ZOI (zone of inhibition of fungal growth calculated for each MEC)", "setting": "Aspergillus flavus", "result": 1.7, "unit": "mm"}, {"measurement": "MEC (minimum effective concentration)", "setting": "Aspergillus flavus", "result": 0.5, "unit": "µg/mL"}]}, {"molecule": "CC[C@H](C)C[C@H](C)CCCCCCCCC(=O)N[C@H]1C[C@@H](O)[C@@H](NCCN)NC(=O)[C@@H]2[C@@H](O)CCN2C(=O)[C@H]([C@H](O)CCN)NC(=O)[C@H]([C@H](O)[C@@H](O)c2ccc(O)cc2)NC(=O)[C@@H]2C[C@@H](O)CN2C(=O)[C@H]([C@@H](C)O)NC1=O", "note": "[Casponfungin]", "values": [{"measurement": "ZOI (zone of inhibition of fungal growth calculated for each MEC)", "setting": "Aspergillus fumigatus", "result": 0.7, "unit": "mm"}, {"measurement": "MEC (minimum effective concentration)", "setting": "Aspergillus fumigatus", "result": 2.5, "unit": "µg/mL"}, {"measurement": "ZOI (zone of inhibition of fungal growth calculated for each MEC)", "setting": "Aspergillus flavus", "result": 0.7, "unit": "mm"}, {"measurement": "MEC (minimum effective concentration)", "setting": "Aspergillus flavus", "result": 2.5, "unit": "µg/mL"}]}, {"molecule": "OC(Cn1cncn1)(Cn1cncn1)c1ccc(F)cc1F", "note": "[Fluconazole]", "values": [{"measurement": "antifungal activity in disk diffusion assay", "setting": "Aspergillus fumigatus", "result": "inactive"}, {"measurement": "ZOI (zone of inhibition of fungal growth calculated for each MEC)", "setting": "Aspergillus fumigatus", "result": 0, "unit": "mm"}, {"measurement": "MEC (minimum effective concentration)", "setting": "Aspergillus fumigatus", "result": 0, "unit": "µg/mL"}, {"measurement": "antifungal activity in disk diffusion assay", "setting": "Aspergillus flavus", "result": "inactive"}, {"measurement": "ZOI (zone of inhibition of fungal growth calculated for each MEC)", "setting": "Aspergillus flavus", "result": 0, "unit": "mm"}, {"measurement": "MEC (minimum effective concentration)", "setting": "Aspergillus flavus", "result": 0, "unit": "µg/mL"}]}]}
